# According to patent publication US20250230193A1, “CYCLIC COMPOUND HAVING SELECTIVE KRAS INHIBITORY EFFECT ON HRAS AND NRAS” (CHUGAI SEIYAKU KABUSHIKI KAISHA, priority 2022, published 2025):
# Where a SMILES comes first, the peptide text is derived from it. Bridges are numbered along the chain shown (N, C = ends). [ ]: non-standard residue; d: D form. The star is where a group is joined. hPhe(3-Cl-4-CF3) = N[C@@H](CCc1ccc(C(F)(F)F)c(Cl)c1)C(=O)O; NPrPhe(4-CF3) = CCCN[C@@H](Cc1ccc(C(F)(F)F)cc1)C(=O)O; NEtPhe(4-CF3) = CCN[C@@H](Cc1ccc(C(F)(F)F)cc1)C(=O)O; NMeGly(cPent) = CN[C@H](C(=O)O)C1CCCC1; NMeD = CN[C@@H](CC(=O)O)C(=O)O; NMeL = CN[C@@H](CC(C)C)C(=O)O; Morpholide = C1CN(*)CCO1; NMeA = CN[C@@H](C)C(=O)O; Ac5c = NC1(C(=O)O)CCCC1; Aze = O=C(O)[C@@H]1CCN1; X25 = CC1(C)CCN(*)C1; Sar = CNCC(=O)O
# How the values were obtained:
# [1] = target: GDP-bound NRAS wild-type protein (Homo sapiens, UniProt P01111); assay: Binding to NRAS by surface plasmon resonance (SPR), Single Cycle Kinetics
# [2] = target: GDP-bound HRAS wild-type protein (Homo sapiens, UniProt P01112); assay: Binding to HRAS by surface plasmon resonance (SPR), Single Cycle Kinetics
# [3] = KD ratio, GDP-bound NRAS wild-type vs GDP-bound KRAS wild-type, SPR
# [4] = KD ratio, GDP-bound HRAS wild-type vs GDP-bound KRAS wild-type, SPR
# [5] = SPR, GDP-bound NRAS wild-type vs GDP-bound KRAS wild-type
# [6] = SPR, GDP-bound HRAS wild-type vs GDP-bound KRAS wild-type
# [7] = SPR, GDP-bound wild-type proteins
# Chain of GDP-bound HRAS wild-type protein (P01112 whole entry): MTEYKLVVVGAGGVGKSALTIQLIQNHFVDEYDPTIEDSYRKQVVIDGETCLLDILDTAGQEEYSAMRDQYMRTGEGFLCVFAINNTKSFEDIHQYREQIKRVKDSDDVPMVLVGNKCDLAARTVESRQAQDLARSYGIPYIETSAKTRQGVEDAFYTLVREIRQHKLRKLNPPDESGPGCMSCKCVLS
# Chain of GDP-bound NRAS wild-type protein (P01111 whole entry): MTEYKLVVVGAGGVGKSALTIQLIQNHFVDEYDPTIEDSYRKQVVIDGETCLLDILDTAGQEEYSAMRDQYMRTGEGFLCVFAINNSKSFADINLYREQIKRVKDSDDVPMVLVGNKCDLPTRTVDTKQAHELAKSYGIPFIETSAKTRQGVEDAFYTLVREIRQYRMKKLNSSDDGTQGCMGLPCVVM
compound,measurement,setting,value
CCO[C@@H]1C[C@H]2C(=O)NC3(CCCC3)C(=O)N(C)[C@@H](C3CCCC3)C(=O)N(C)[C@H](C(=O)N3CCOCC3)CC(=O)N(C)[C@@H](COC)C(=O)N[C@@H]([C@@H](C)CC)C(=O)N3CC[C@H]3C(=O)N(C)[C@H]3CCCCCN(C3=O)[C@@H](Cc3ccc(C(F)(F)F)cc3)C(=O)N(C)CC(=O)N[C@@H](CCc3cc(F)c(C(F)(F)F)c(F)c3)C(=O)N2C1 [PP0867],NRAS/KRAS (ratio of KD value with respect to NRAS to KD value with respect to KRAS),[1]; [3],B (a compound having 3 or more and less than 10 is denoted as B)
same,HRAS/KRAS (ratio of KD value with respect to HRAS to KD value with respect to KRAS),[2]; [4],B (a compound having 3 or more and less than 10 is denoted as B)
CCCN1C(=O)[C@@H]2CCN2C(=O)[C@H](C)N(C)C(=O)[C@H]([C@@H](C)CC)NC(=O)[C@H](CC(C)C)N(C)C(=O)C[C@@H](C(=O)N2CCC(C)(C)C2)N(C)C(=O)[C@H](C2CCCC2)N(C)C(=O)C2(CCCC2)NC(=O)[C@@H]2CCCN2C(=O)[C@H](CCc2ccc(C(F)(F)F)c(Cl)c2)NC(=O)CN(C)C(=O)[C@@H]1Cc1ccc(C(F)(F)F)cc1 [PP0186] ([NMeL]I[NMeA][Aze][NPrPhe(4-CF3)][Sar][hPhe(3-Cl-4-CF3)]P[Ac5c][NMeGly(cPent)][NMeD]-X25; lactam N-11),NRAS/KRAS (ratio of KD for GDP-bound NRAS wild-type to KD for KRAS),[1]; SPR,C (A compound having a KD ratio of 0.1 or more and less than 3 is denoted as C)
same,HRAS/KRAS (ratio of KD for GDP-bound HRAS wild-type to KD for KRAS),[2]; SPR,B (a compound having 3 or more and less than 10 is denoted as B)
CCC[C@H]1C(=O)N[C@@H]([C@@H](C)CC)C(=O)N(C)CC(=O)N(C)[C@H]2C/C=C\CCN(C2=O)[C@@H](Cc2ccc(C(F)(F)F)cc2)C(=O)N(C)CC(=O)N[C@@H](CCc2ccc(C(F)(F)F)c(OC)c2)C(=O)N2C[C@H](OCC)C[C@H]2C(=O)NC2(CC(C)(C)C2)C(=O)N(C)[C@@H](CC2CC2)C(=O)N(C)[C@H](C(=O)N(C)C)CC(=O)N1C [PP2809],NRAS/KRAS (ratio of KD value with respect to GDP-bound NRAS wild-type protein to KD value with respect to KRAS),[1]; class symbols,A (a compound having 10 or more and less than 20 is denoted as A)
same,HRAS/KRAS (ratio of KD value with respect to GDP-bound HRAS wild-type protein to KD value with respect to KRAS),[2]; class symbols,A (a compound having 10 or more and less than 20 is denoted as A)
CC[C@H](C)[C@@H]1NC(=O)[C@H](COC)N(C)C(=O)C[C@@H](C(=O)N(C)C)N(C)C(=O)[C@H](C2CCCC2)N(C)C(=O)C2(CC(C)(C)C2)NC(=O)[C@@H]2C[C@@H](OC(C)C)CN2C(=O)[C@H](CCc2cc(F)c(C(F)(F)F)c(F)c2)NC(=O)CN(C)C(=O)[C@H](CC2CCCCC2)N2CC/C=C\C[C@@H](C2=O)N(C)C(=O)CN(C2CC2)C1=O [PP2511],NRAS/KRAS (ratio of KD value with respect to NRAS to KD value with respect to KRAS),[1]; [5],A (a compound having 10 or more and less than 20 is denoted as A)
same,HRAS/KRAS (ratio of KD value with respect to HRAS to KD value with respect to KRAS),[2]; [6],A (a compound having 10 or more and less than 20 is denoted as A)
CCOC[C@H]1C(=O)N[C@@H]([C@@H](C)CC)C(=O)N(C)CC(=O)N(C)[C@H]2C/C=C\CCN(C2=O)[C@@H](Cc2ccc(C)cc2)C(=O)N(C)CC(=O)N[C@@H](CCc2ccc(C(F)(F)F)c(OC)c2)C(=O)N2C[C@H](C)C[C@H]2C(=O)NC2(CC(C)(C)C2)C(=O)N(C)[C@@H](C2CCCC2)C(=O)N(C)[C@H](C(=O)N(C)C)CC(=O)N1C [PP2393],NRAS/KRAS (ratio of KD value with respect to NRAS to KD value with respect to KRAS),[1]; [5],A (a compound having 10 or more and less than 20 is denoted as A)
same,HRAS/KRAS (ratio of KD value with respect to HRAS to KD value with respect to KRAS),[2]; [6],A (a compound having 10 or more and less than 20 is denoted as A)
CCO[C@@H]1C[C@H]2C(=O)NC3(CCC3)C(=O)N(C)[C@@H](C3CCCC3)C(=O)N(C)[C@H](C(=O)N3CCOCC3)CC(=O)N(C)[C@@H](Cc3cccs3)C(=O)N[C@@H]([C@@H](C)CC)C(=O)N(C)CC(=O)N(C)[C@H]3CCCCCN(C3=O)[C@@H](Cc3ccc(C(F)(F)F)cc3)C(=O)N(C)CC(=O)N[C@@H](CCc3cc(F)c(C(F)(F)F)c(F)c3)C(=O)N2C1 [PP1163],NRAS/KRAS (ratio of KD value with respect to NRAS to KD value with respect to KRAS),[1]; [3],B (a compound having 3 or more and less than 10 is denoted as B)
same,HRAS/KRAS (ratio of KD value with respect to HRAS to KD value with respect to KRAS),[2]; [4],B (a compound having 3 or more and less than 10 is denoted as B)
CCCN(C)C(=O)[C@@H]1CC(=O)N(C)[C@@H](CC(C)C)C(=O)N[C@@H]([C@@H](C)OC)C(=O)N(C)CC(=O)N(C)[C@H]2C/C=C\CCN(C2=O)[C@@H](Cc2ccc(C(F)(F)F)cc2)C(=O)N(C)CC(=O)N[C@@H](CCc2cc(F)c(C(F)(F)F)c(F)c2)C(=O)N2C[C@H](OCC)C[C@H]2C(=O)NC2(CC(C)(C)C2)C(=O)N(C)[C@@H](C2CCCC2)C(=O)N1C [PP1917],NRAS/KRAS (ratio of KD value for NRAS to KD value for KRAS),[1]; [3],A (a compound having 10 or more and less than 20 is denoted as A)
same,HRAS/KRAS (ratio of KD value for HRAS to KD value for KRAS),[2]; [4],A (a compound having 10 or more and less than 20 is denoted as A)
CCO[C@@H]1C[C@H]2C(=O)NC3(CC(C)(C)C3)C(=O)N(C)[C@@H](C(CC)CC)C(=O)N(C)[C@H](C(=O)N(C)C)CC(=O)N(C)[C@@H](CC3CC3)C(=O)N[C@@H]([C@@H](C)CC)C(=O)N(C)CC(=O)N(C)[C@H]3C/C=C\CCN(C3=O)[C@@H](Cc3ccc(C(F)(F)F)cc3)C(=O)N(C)CC(=O)N[C@@H](CCc3ccc(C(F)(F)F)c(Cl)c3)C(=O)N2C1 [PP2124],NRAS/KRAS (ratio of KD value with respect to NRAS to KD value with respect to KRAS),[1]; [5],AA (a compound having 20 or more is denoted as AA)
same,HRAS/KRAS (ratio of KD value with respect to HRAS to KD value with respect to KRAS),[2]; [6],A (a compound having 10 or more and less than 20 is denoted as A)
"CCC[C@H]1C(=O)N[C@@H]([C@@H](C)CC)C(=O)N(C)CC(=O)N(C)[C@H]2C/C=C\CCN(C2=O)[C@@H](Cc2ccc(C(F)(F)F)cc2)C(=O)N(C)CC(=O)N[C@@H](CCc2ccc(C(F)(F)F)c(OC)c2)C(=O)N2C[C@H](OCC)C[C@H]2C(=O)N(C)C2(CCC2)C(=O)N(C)[C@@H](C2CCCC2)C(=O)N(C)[C@H](C(=O)N2CCCC2)CC(=O)N1C [PP3105, (2S,8S,12R,14S,20S,23S,27S,30S,36S,38Z)-20-cyclopentyl-12-ethoxy-8-[2-[3-methoxy-4-(trifluoromethyl)phenyl]ethyl]-4,16,19,22,26,32,35-heptamethyl-30-[(1S)-1-methylpropyl]-27-propyl-23-(pyrrolidine-1-carbonyl)-2-[[4-(trifluoromethyl)phenyl]methyl]spiro[1,4,7,10,16,19,22,26,29,32,35-undecazatricyclo[34.5.1.0^10,14]dotetracont-38-ene-17,1′-cyclobutane]-3,6,9,15,18,21,25,28,31,34,42-undecone]",NRAS/KRAS (ratio of KD value with respect to GDP-bound NRAS wild-type protein to KD value with respect to KRAS),[1]; [7],AA (a compound having 20 or more is denoted as AA)
same,HRAS/KRAS (ratio of KD value with respect to GDP-bound HRAS wild-type protein to KD value with respect to KRAS),[2]; [7],A (a compound having 10 or more and less than 20 is denoted as A)
CC[C@H](C)[C@@H]1NC(=O)[C@H](COC)N(C)C(=O)C[C@@H](C(=O)N(C)C)N(C)C(=O)[C@H](C2CCCC2)N(C)C(=O)C2(CC(C)(C)C2)NC(=O)[C@@H]2C[C@@H](OC3CCC3)CN2C(=O)[C@H](CCc2ccc(Cl)c(Cl)c2)NC(=O)CN(C)C(=O)[C@H](CC2CCC(F)(F)CC2)N2CC/C=C\C[C@@H](C2=O)N(C)C(=O)CN(C2CC2)C1=O [PP2624],NRAS/KRAS (ratio of KD value with respect to GDP-bound NRAS wild-type protein to KD value with respect to KRAS),[1]; class symbols,A (a compound having 10 or more and less than 20 is denoted as A)
same,HRAS/KRAS (ratio of KD value with respect to GDP-bound HRAS wild-type protein to KD value with respect to KRAS),[2]; class symbols,A (a compound having 10 or more and less than 20 is denoted as A)
CCO[C@@H]1C[C@H]2C(=O)NC3(CCC3)C(=O)N(C)[C@@H](C(CC)CC)C(=O)N(C)[C@H](C(=O)N(C)C)CC(=O)N(C)[C@@H](C)C(=O)N[C@@H]([C@@H](C)CC)C(=O)N(C)CC(=O)N(C)[C@H]3C/C=C\CCN(C3=O)[C@@H](Cc3ccc(C(F)(F)F)cc3)C(=O)N(C)CC(=O)N[C@@H](CCc3cc(F)c(C(F)(F)F)c(F)c3)C(=O)N2C1 [PP1199],NRAS/KRAS (ratio of KD value with respect to NRAS to KD value with respect to KRAS),[1]; [3],A (a compound having 10 or more and less than 20 is denoted as A)
same,HRAS/KRAS (ratio of KD value with respect to HRAS to KD value with respect to KRAS),[2]; [4],A (a compound having 10 or more and less than 20 is denoted as A)
CCO[C@@H]1C[C@H]2C(=O)NC3(CCC3)C(=O)N(C)[C@@H](C3CCCC3)C(=O)N(C)[C@H](C(=O)N3CCOCC3)CC(=O)N(C)[C@@H](CC)C(=O)N[C@@H]([C@@H](C)CC)C(=O)N(C)CC(=O)N(C)[C@H]3CCCCCN(C3=O)[C@@H](Cc3ccc(C(F)(F)F)cc3)C(=O)N(C)CC(=O)N[C@@H](CCc3cc(F)c(C(F)(F)F)c(F)c3)C(=O)N2C1 [PP0678],NRAS/KRAS (ratio of KD value with respect to GDP-bound NRAS wild-type protein to KD value with respect to KRAS),[1]; SPR,B (a compound having 3 or more and less than 10 is denoted as B)
same,HRAS/KRAS (ratio of KD value with respect to GDP-bound HRAS wild-type protein to KD value with respect to KRAS),[2]; SPR,B (a compound having 3 or more and less than 10 is denoted as B)
CC[C@H](C)[C@@H]1NC(=O)[C@H](CC(C)C)N(C)C(=O)C[C@@H](C(=O)N2CCOCC2)N(C)C(=O)[C@H](C2CCCC2)N(C)C(=O)C2(CCCC2)NC(=O)[C@@H]2CCCN2C(=O)[C@H](CCc2ccc(C(F)(F)F)c(Cl)c2)NC(=O)CN(C)C(=O)[C@H](Cc2ccc(C(F)(F)F)cc2)N(CC)C(=O)[C@@H]2CCN2C(=O)[C@H](C)N(C)C1=O [PP0002] ([NMeL]I[NMeA][Aze][NEtPhe(4-CF3)][Sar][hPhe(3-Cl-4-CF3)]P[Ac5c][NMeGly(cPent)][NMeD]-Morpholide; lactam N-11),NRAS/KRAS (ratio of KD for GDP-bound NRAS wild-type to KD for KRAS),[1]; SPR,C (A compound having a KD ratio of 0.1 or more and less than 3 is denoted as C)
same,HRAS/KRAS (ratio of KD for GDP-bound HRAS wild-type to KD for KRAS),[2]; SPR,C (A compound having a KD ratio of 0.1 or more and less than 3 is denoted as C)
